The subject of data set [1] is NF-κB. Nature of the data set: NF-κB-mediated luciferase reporter gene assay, HEK293 NF-κB/Luc cells, TNF-α stimulation. The format is cell-based, human. The settings on record: Homo sapiens, HEK293, Table 12; read-out: NF-κB EC50. Summed up: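 Cells seeded at 1.5×10^4/well in phenol-red free DMEM, pretreated 1 h with 8-point half-log compound dilutions (DMSO stocks), then stimulated with TNF-α (10 μl of 50 ng/ml solution) for 6 h. Luciferase read as RLU after 10 min with Steady Lite reagent at room temperature.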

The target of data set [2] is T1, chymotrypsin-like activity of 20S proteasomes in RPMI 8226 cells (Homo sapiens, UniProt P28074).
T1 construct: added to 2.5×10^5/ml RMPI 8226 cells; endogenous in cells; host or cells: RPMI 8226 (ATCC CCL-155)
T1 sequence (P28074 60-263): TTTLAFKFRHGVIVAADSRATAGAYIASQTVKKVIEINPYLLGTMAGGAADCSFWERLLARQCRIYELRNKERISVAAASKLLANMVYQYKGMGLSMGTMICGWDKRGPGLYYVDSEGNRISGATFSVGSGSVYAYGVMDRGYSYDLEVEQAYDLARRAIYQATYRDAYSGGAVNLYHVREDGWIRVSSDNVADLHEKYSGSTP
The data set can be described thus: Chymotrypsin-like activity of 20S proteasomes in lysates of treated RPMI 8226 cells. The format is cell-based. As to the method:
RPMI 8226 (ATCC, CCL-155), the human multiple myeloma cell line, was cultured in RPMI 1640 medium supplemented with 2 mM L-glutamine, 100 units/ml penicillin, 100 μg/ml streptomycin, 1 mM sodium pyruvate and 10% heat inactivated fetal bovine serum at 37° C., 5% CO2 and 95% humidified air. […] DMSO was used as the vehicle control at a final concentration of 0.1%. Following 1 hr incubation of RMPI 8226 cells with the compounds, the cells were pelleted by centrifugation at 2,000 rpm for 10 sec at room temperature and washed 3× with ice-cold 1× Dulbecco's Phosphate-Buffered Saline (DPBS, Mediatech, Herndon, Va.). DPBS washed cells were lysed on ice for 15 min in lysis buffer (20 mM HEPES, 0.5 mM EDTA, 0.05% Triton X-100, pH 7.3) supplemented with protease inhibitor cocktail (Roche Diagnostics, Indianapolis, Ind.). Cell debris was pelleted by centrifugation at 14,000 rpm for 10 min, 4° C. and supernatants (=cell lysates) were transferred to a new tube. Protein concentration was determined by the BCA protein assay kit (Pierce Biotechnology, Rockford, Ill.). […] The released coumarin (AMC) was measured fluorometrically by using λex=390 nm and λem=460 nm. The assay was performed in a microtiter plate (Corning 3904) and followed kinetically with measurements every five minutes for 2 hr. The total amount of protein used for each assay was 20 μg. The final concentration of Suc-LLVY-AMC and DMSO was 20 μM and 0.2%, respectively.

The target in data set [3] is T2, chymotrypsin-like activity of 20S proteasomes in PC-3 cells (Homo sapiens, UniProt P28074).
T2 construct: endogenous in cells; host or cells: PC-3 (ATCC CRL-1435)
The data set can be described thus: Chymotrypsin-like activity of 20S proteasomes in lysates of treated PC-3 cells. The class given is cell-based. Conditions: for % inhibition of the chymotrypsin-like activity of 20S proteasomes in PC-3 cell lysates: 1 hr incubation. As to the method:
PC-3 (ATCC, CRL-1435), the human prostate cancer cell line, was cultured in F12K medium supplemented with 2 mM L-glutamine, 100 units/ml penicillin, 100 μg/ml streptomycin and 10% heat inactivated fetal bovine serum at 37° C., 5% CO2 and 95% humidified air. […] DMSO was used as the vehicle control at a final concentration of 0.1%. Following 1 hr incubation of PC-3 cells with the compounds, the cells were washed 3× with ice-cold 1× Dulbecco's Phosphate-Buffered Saline (DPBS, Mediatech, Herndon, Va.). […] Cell debris was pelleted by centrifugation at 14,000 rpm for 10 min, 4° C. and supernatants (=cell lysates) were transferred to a new tube. Protein concentration was determined by the BCA protein assay kit (Pierce Biotechnology, Rockford, Ill.). […] The released coumarin (AMC) was measured fluorometrically by using λex=390 nm and λem=460 nm. The assay was performed in a microtiter plate (Corning 3904) and followed kinetically with measurements every five minutes for 2 hr. The total amount of protein used for each assay was 20 μg. The final concentration of Suc-LLVY-AMC and DMSO was 20 μM and 0.2%, respectively. Results are presented as the percent inhibition of the 20S proteasome chymotrypsin-like activity relative to the DMSO control.

Data set [4] deals with B16-F10. Nature of the data set: Growth inhibition of B16-F10 in media containing 1% or 10% FBS. The format is cell-based, mouse.
For data set [5], the system named is RPMI 8226. Nature of the data set: cells. Conditions: for EC50: Homo sapiens. As to the method: RPMI 8226 (CCL-155), HT-29 (HTB-38), and B16-F10 (CRL-6475) cells were purchased from ATCC. RPMI 8226 cells were maintained in RPMI 1640 media supplemented with 10% (v/v) FBS, 2 mM L-glutamine, 1 mM sodium pyruvate and Penicillin/Streptomycin at 100 IU/ml and 100 μg/ml, respectively. HT-29 cells were maintained in McCoys 5A supplemented with 10% (v/v) FBS, 2 mM L-glutamine, 1 mM sodium pyruvate, 1% (v/v) non-essential amino acids, 10 mM HEPES and Penicillin/Streptomycin at 100 IU/ml and 100 μg/ml, respectively. B16-F10 cells were maintained in DMEM supplemented with 10% (v/v) FBS, 2 mM L-glutamine, 10 mM HEPES and Penicillin/Streptomycin at 100 IU/ml and 100 μg/ml, respectively.
RPMI 8226 cells were seeded at 2×10^4 cells/well in 90 μl RPMI media containing 10% (v/v) FBS or 1% (v/v) FBS into 96 well black-walled, clear-bottom tissue culture plates. […] Formulae II-16, II-17 and Formula II-18 were serially diluted in media containing 1% or 10% FBS and added in triplicate to the test wells. […] The final concentration of Formula II-18 ranged from 2 μM to 630 pM.

In data set [6] the test system is HT-29. The data set can be described thus: Growth inhibition of HT-29 in media containing 1% or 10% FBS. The class given is cell-based, human. The settings on record: for EC50: Homo sapiens, HT-29, read-out: HT-29, EC50 (nM) mean ± SD.
[7] abbreviates: RPMI-8226, read-out: % inhibition of the chymotrypsin-like activity of 20S proteasomes in RPMI 8226 cell lysates.
Where [8] appears, read: PC-3, read-out: % inhibition of the chymotrypsin-like activity of 20S proteasomes in PC-3 cell lysates.

Like-named read-outs stand apart in the source and are kept apart here.

Consider `C[C@@]12OC(=O)[C@]1([C@@H](O)[C@@H]1C=CCCC1)NC(=O)[C@@H]2CCCl` [Formula II-16], for which the EC50 in data set [1] came out at 11 ± 3 nM; in data set [4] (Mus musculus, B16-F10, read-out: B16-F10, EC50 (nM) mean ± SD, media containing 1% FBS), 18 ± 9 nM; in data set [5] (RPMI-8226, read-out: 1% FBS, EC50, RPMI 8226, media containing 1% FBS, single experiments) it was 6.2 nM; in data set [5] (RPMI-8226, read-out: 10% FBS, EC50, RPMI 8226, media containing 10% FBS, single experiments) it was 12 nM; in data set [5] (RPMI-8226, read-out: Mean 10% FBS, EC50, RPMI 8226, media containing 10% FBS, mean), 11 nM; in data set [6] (media containing 1% FBS), 16 ± 5 nM. Also, the EC50 in data set [6] (media containing 10% FBS) turned out to be 23 ± 10 nM. In data set [2] (100 nM, 1 hr incubation, mean ± SD, n = 3, 0.1 µM), the “% inhibition of the chymotrypsin-like activity of 20S proteasomes in RPMI 8226 cell lysates” value is listed as “completely inhibit”. Moreover, the inhibition at 0.001 µM in data set [2] (setting [7]) came out at 30 ± 7%. Besides, the inhibition at 0.005 µM in data set [2] (setting [7]) is 85 ± 7%; in data set [3] (setting [8]), 69%. The inhibition at 0.01 µM in data set [2] (setting [7]) was found to be 94 ± 3%. The inhibition at 0.05 µM in data set [2] (setting [7]) is 97%; in data set [3] (setting [8]), 98%. Moreover, in data set [2] (setting [7]), the inhibition at 0.1 µM came to 98 ± 1%. Besides, the “% inhibition of the chymotrypsin-like activity of 20S proteasomes in PC-3 cell lysates” value is reported as 69% in data set [3] (5 nM) and “completely inhibit” in data set [3] (50 nM, 0.05 µM). Moreover, in data set [4] (1% or 10% FBS), the “cytotoxicity against B16-F10 in media containing 1% or 10% FBS, in words” value is “cytotoxic”. Moreover, the “cytotoxicity against RPMI 8226 in media containing 1% or 10% FBS, in words” value in data set [5] (1% or 10% FBS) is given as “cytotoxic”. Further, the “cytotoxicity against HT-29 in media containing 1% or 10% FBS, in words” value in data set [6] (1% or 10% FBS) was “cytotoxic”.

Values taken from patent US7544814B2, “[3.2.0] Heterocyclic compounds and methods of using the same” (Nereus Pharmaceuticals, Inc., priority 2004, dated 2009).
